Results from article PMC3996151, “Safety and pharmacological characterization of the molecular tweezer CLR01 – a broad-spectrum inhibitor of amyloid proteins’ toxicity” (BMC Pharmacology & Toxicology, 2014).
Where two headings read alike, the source gives them in different places. Marks after values point to notes of the source that are not given here.

Tests used:
[1] = biological target: T1, porcine brain tubulin (Sus scrofa, UniProt P02550+P02554); assay: Inhibition of tubulin polymerization (turbidity, absorbance at 340 nm); type: biochemical
T1 construct: porcine brain tubulin; purchased Cytoskeleton, Inc., Denver, Colorado; host or cells: porcine brain (tissue-purified)
T1 sequence (P02550 whole entry): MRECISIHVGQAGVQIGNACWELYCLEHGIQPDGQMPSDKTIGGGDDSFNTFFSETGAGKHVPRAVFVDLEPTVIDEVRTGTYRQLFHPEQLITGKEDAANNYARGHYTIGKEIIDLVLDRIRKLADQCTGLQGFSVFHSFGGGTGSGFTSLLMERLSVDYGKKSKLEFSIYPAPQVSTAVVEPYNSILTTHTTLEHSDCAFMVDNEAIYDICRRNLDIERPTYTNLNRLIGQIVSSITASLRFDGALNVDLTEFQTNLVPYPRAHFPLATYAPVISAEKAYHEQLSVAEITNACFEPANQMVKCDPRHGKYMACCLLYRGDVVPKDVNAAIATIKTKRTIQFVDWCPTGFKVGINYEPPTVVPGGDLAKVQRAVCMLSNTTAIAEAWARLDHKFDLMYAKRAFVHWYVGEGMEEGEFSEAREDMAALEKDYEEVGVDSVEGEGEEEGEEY
T1 sequence (P02554 whole entry): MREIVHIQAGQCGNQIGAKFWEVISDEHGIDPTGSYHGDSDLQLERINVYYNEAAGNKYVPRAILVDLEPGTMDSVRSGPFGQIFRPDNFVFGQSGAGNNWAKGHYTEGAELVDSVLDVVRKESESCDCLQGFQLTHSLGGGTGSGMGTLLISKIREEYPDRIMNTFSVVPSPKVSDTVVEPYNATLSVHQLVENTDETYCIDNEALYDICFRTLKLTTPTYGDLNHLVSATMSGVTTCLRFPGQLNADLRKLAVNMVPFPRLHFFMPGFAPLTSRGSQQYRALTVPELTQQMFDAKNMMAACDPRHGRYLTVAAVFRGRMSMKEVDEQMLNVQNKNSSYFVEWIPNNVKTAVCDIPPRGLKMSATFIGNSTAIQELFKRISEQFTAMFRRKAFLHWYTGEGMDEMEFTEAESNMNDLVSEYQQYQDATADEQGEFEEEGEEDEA
Method: The effect of CLR01 on tubulin polymerization was analyzed using a commercial kit (Cytoskeleton, Inc., Denver, Colorado). Three mg/ml porcine brain tubulin (~18 μM) were allowed to polymerize at 37 °C in the absence or presence of CLR01 concentrations ranging from 10–1,000 μM. The turbidity of the solution was measured as absorbance at λ = 340 nm using a Synergy HT microplate reader (BioTek, Winooski, VT). The data are an average of three independent experiments with two wells per condition.
As stated above, the mechanism by which CLR01 remodels the assembly of amyloidogenic proteins into non-toxic assemblies that can be degraded by normal clearance mechanisms is by its specific binding to Lys residues. The mechanism is “process-specific” because it is postulated to affect only the aberrant assembly of proteins that leads to toxic oligomers and aggregates, but not normal protein structure, function, or assembly as happens, e.g., in tubulin polymerization. To test whether this indeed is the case, we examined the effect of CLR01 on tubulin polymerization. Three mg/ml (~18 μM) porcine brain tubulin, which contains 3.8% Lys and 4.8% Arg, was allowed to polymerize in the absence or presence of CLR01 concentrations ranging from 10–1,000 μM.

[2] = test system: C57BL/6J mice; assay: Chronic toxicity: daily IP injection for 30 days, behaviour, histopathology and serum chemistry; type: in vivo, mouse; settings: for Alanine aminotransferase / Albumin / Alkaline phosphatase / Aspartate aminotransferase / Blood urea nitrogen / Cholesterol / Creatinine / Glucose / Lactate dehydrogenase / Total bilirubin / Total protein: serum, 2-m old WT mice, chronic, 30 day, mean
Method: For acute-toxicity studies, 2-m old C57BL/6J mice were administered saline-vehicle, 10 mg/kg, or 100 mg/kg CLR01 by a single intraperitoneal (IP) injection. The mice were sacrificed 24-h after the injection. For chronic toxicity studies, 2-m old C57BL/6J mice were administered saline-vehicle, 3 mg/kg, or 10 mg/kg CLR01 by daily IP injection for 30 days. Acute-study mice were visually monitored for 1 h after injection and then every 50 min for 10 min over the first 6 h of the experiment for changes in activity and behavior. The mice also were monitored every 110 min for 10 min during the last 6 h of the experiment until they were sacrificed. Chronic-study mice were monitored for 1 h after injection and then 3 times a day for 10 min each, every day of the first week. During that week there were no appreciable changes in the behavior, appearance, or weight of the mice. Therefore, monitoring was reduced to twice a day during the remainder of the experiment. On all occasions, the mice were monitored for any signs of severe toxicity, including bruising or bleeding, pale mucous membranes or extremities, diarrhea, dehydration, neurological signs, such as difficulty ambulating or paralysis, tachypnea or dyspnea, or abdominal distension.
Following the treatment, mice were anesthetized with pentobarbital and blood was collected by cardiac puncture and placed in tubes containing a clot activator for serum separation (Capiject T-MG tubes, Terumo Medical Products, Somerset, NJ). Then, the lungs were filled through the trachea with 4% paraformaldehyde to prevent collapse, and tissues (brain, heart-lung, liver, kidney, and spleen) were collected and fixed for 72 h in 4% paraformaldehyde at a ratio of ~1:10 tissue:fixative (v/v). Tissues then were transferred into a 70%-ethanol solution and transferred to the UCLA Mouse Pathology Core for paraffin embedding, sectioning, and tissue histopathology analysis. Serum was analyzed by the UCLA Division of Laboratory Animal Medicine (DLAM) Animal Serology & Molecular Diagnostic Laboratory for an 11-panel serum chemical analysis using the ACE Alera Clinical Chemistry system (Alfa Wassermann Diagnostic Technologies, West Caldwell, NJ). The panel included: alanine aminotransferase, aspartate aminotransferase, albumin, alkaline phosphatase, creatinine, total bilirubin, lactate dehydrogenase, blood urea nitrogen, cholesterol, total protein, and glucose.
If CLR01 indeed operates by a process-specific mechanism and remodels the abnormal aggregation of amyloidogenic proteins at substantially lower concentrations than concentrations that would perturb normal physiological processes, one would expect the compound to have a high therapeutic index. To calculate the therapeutic index, a lethal dose must be reached. […] The next rational step was to test the safety margin of CLR01 in vivo. Based on the in vitro and cell culture data, we expected that 100 mg/kg would be lethal to mice and therefore used it as the highest dose in our safety-evaluation experiments. We assessed the safety of CLR01 in 2-m old, male, WT mice either 24 h following a single IP injection of 10 or 100 mg/kg (acute administration) or after daily IP injection of 3 or 10 mg/kg for 30 days (chronic administration). Following euthanasia, serum was collected for chemical analysis and tissues were harvested for histopathology evaluation.

[3] = set-up: method as in PMID 23183235; settings: 3H-CLR01 IV, 12-m old WT and 3×Tg AD mice; cited from earlier work
[4] = test system: cytochrome P450 system, five major isoforms; set-up: method as in PMID 23183235; settings: half-maximal inhibition concentration values above levels expected to cause drug–drug interactions; cited from earlier work
[5] = set-up: method as in PMID 23183235; settings: human plasma; cited from earlier work
[6] = set-up: method as in PMID 23183235; settings: human liver microsomes; cited from earlier work
[7] = set-up: method as in PMID 21916458, PMID 16218636; settings: cited from earlier work
[8] = test system: 3×Tg mouse model of AD; set-up: method as in PMID 23183235; settings: cited from earlier work
[9] = test system: transthyretin; set-up: method as in PMID 24459092; settings: peripheral administration, 1.2 mg/kg/day; cited from earlier work
[10] = daily IP 3 or 10 mg/kg for 30 days

Q: Which “Concentration ratio for disruption of tubulin polymerization relative to ratios needed for inhibition of aggregation of amyloidogenic proteins” value [1] does the source give for O=P(O)(O)Oc1c2c(c(OP(=O)(O)O)c3c1C1CC3c3cc4c(cc31)C1CC4c3ccccc31)C1CC2c2cc3c(cc21)C1CC3c2ccccc21 [CLR01] here?
A: 20–50 times higher

Q: And the “Absorbance observed immediately (λ = 340 nm)” value ([1]; 1,000 μM CLR01, 0.05-0.09 without or with up to 300 μM)?
A: 0.15 absorbance units

Q: What about the “Concentrations that did not significantly affect the polymerization of tubulin” value ([1]; 3 mg/ml (~18 μM) tubulin, 37 °C) of the same compound?
A: up to 300 μM

Q: What about the “Concentration at which significant modulation of tubulin polymerization was observed” value ([1]; 3 mg/ml (~18 μM) tubulin, 37 °C, CLR01 tested at 10–1,000 μM) of the same compound?
A: 1,000 μM

Q: And the “Chronically administered dose without toxicity relative to the efficacious dose of 40 μg/kg/day” value ([2]; 10 mg/kg/day)?
A: 250 times

Q: And the Liver histopathology ([2]; daily IP 3 mg/kg for 30 days, a few mice, judged not pathogenic and unlikely related to treatment)?
A: mild-to-moderate multifocal extramedullary hematopoiesis in the liver

Q: What about the Pancreas finding ([2]; daily IP 3 mg/kg for 30 days, two mice, unlikely related to treatment) of the same compound?
A: Mild pancreatitis

Q: What about the “Reduction in blood cholesterol compared to the control group” value ([2]; daily IP 10 mg/kg for 30 days) of the same compound?
A: ~ 40%

Q: What about the Tissue histopathology ([2]; daily IP 10 mg/kg for 30 days) of the same compound?
A: no signs of tissue pathology or liver necrosis

Q: What about the “Behavior (levels and type of activity and grooming)” value [2, 10] of the same compound?
A: behaved indistinguishably from control mice

Q: What about the “Histopathology of heart, lung, spleen and brain” value [2, 10] of the same compound?
A: indistinguishable from vehicle-treated mice

Q: And the Alanine aminotransferase ([2]; daily IP dose 3 mg/kg, N = 10)?
A: 43.1 U/L

Q: What about the Albumin ([2]; daily IP dose 3 mg/kg, N = 10) of the same compound?
A: 2.8 g/dL

Q: What about the Alkaline phosphatase ([2]; daily IP dose 3 mg/kg, N = 10) of the same compound?
A: 104.4 U/L

Q: What about the Aspartate aminotransferase ([2]; daily IP dose 3 mg/kg, N = 10) of the same compound?
A: 150.9 U/L

Q: What about the Blood urea nitrogen ([2]; daily IP dose 3 mg/kg, N = 10) of the same compound?
A: 22.3 mg/dL

Q: And the Cholesterol ([2]; daily IP dose 3 mg/kg, N = 10)?
A: 80.9 mg/dL

Q: And the Creatinine ([2]; daily IP dose 3 mg/kg, N = 10)?
A: 0.3 mg/dL

Q: What about the Glucose ([2]; daily IP dose 3 mg/kg, N = 10) of the same compound?
A: 256.7 mg/dL

Q: And the Lactate dehydrogenase ([2]; daily IP dose 3 mg/kg, N = 10)?
A: 507.0 U/L

Q: And the Total bilirubin ([2]; daily IP dose 3 mg/kg, N = 10)?
A: 0.2 mg/dL

Q: And the Total protein ([2]; daily IP dose 3 mg/kg, N = 10)?
A: 4.7 g/dL

Q: What about the Alanine aminotransferase ([2]; daily IP dose 10 mg/kg, N = 9) of the same compound?
A: 38.4 U/L

Q: What about the Albumin ([2]; daily IP dose 10 mg/kg, N = 9) of the same compound?
A: 2.7 g/dL

Q: And the Alkaline phosphatase ([2]; daily IP dose 10 mg/kg, N = 9)?
A: 106.1 U/L

Q: And the Aspartate aminotransferase ([2]; daily IP dose 10 mg/kg, N = 9)?
A: 236.2 U/L

Q: What about the Blood urea nitrogen ([2]; daily IP dose 10 mg/kg, N = 9) of the same compound?
A: 24.1 mg/dL

Q: What about the Creatinine ([2]; daily IP dose 10 mg/kg, N = 9) of the same compound?
A: 0.2 mg/dL

Q: And the Glucose ([2]; daily IP dose 10 mg/kg, N = 9)?
A: 233.9 mg/dL

Q: What about the Lactate dehydrogenase ([2]; daily IP dose 10 mg/kg, N = 9) of the same compound?
A: 483.0 U/L

Q: What about the Total bilirubin ([2]; daily IP dose 10 mg/kg, N = 9) of the same compound?
A: 0.2 mg/dL

Q: And the Total protein ([2]; daily IP dose 10 mg/kg, N = 9)?
A: 4.6 g/dL

Q: What about the Cholesterol ([2]; daily IP dose 10 mg/kg, N = 9, p < 0.01 vs control) of the same compound?
A: 56.8** mg/dL

Q: What about the “Radioactivity levels in the brain, % of blood levels” value [3] of the same compound?
A: ~ 2%

Q: And the “Inhibition of five major cytochrome P450 isoforms” value [4]?
A: minimal inhibition

Q: And the Stability [5]?
A: 100%

Q: What about the Stability [6] of the same compound?
A: 100%

Q: And the “Affinity for Lys residues” value [7]?
A: low micromolar affinity

Q: And the “Effect on AD-like brain pathology” value ([8]; SC, 40 μg/kg/day)?
A: significant decrease in amyloid plaque burden and hyperphosphorylated tau

Q: What about the “Effect on APP processing” value ([8]; treated AD mice) of the same compound?
A: did not affect processing of amyloid β-protein precursor (APP)

Q: What about the “Effect on transthyretin pathology” value [9] of the same compound?
A: significant decrease in transthyretin deposition
